Laboratory results from patent US5218089A, “Retro-inverso analogues of thymopentin and the method for their synthesis” (Sclavo S.p.A., priority 1988, dated 1993).

What was measured:
in vitro = conditions: human, heparinized human plasma
Protocol: (§1) The incubations were done at 37° C., and the withdrawn samples of the plasmatic mixture, of 100 μl each, were blocked at the various times by adding trifluoroacetic acid to the extent of 10%, followed by centrifuging at 10,000g for 5 minutes. An aliquot of the supernatant was chromatographed under conditions suitable for showing the change in the peptide concentration at the various times.

[1] = Stability towards enzymatic hydrolysis in heparinized human plasma; conditions: 37° C., about 30 nmoles/ml of plasma
Protocol: as §1

[2] = system: lymphocytes which secrete antibodies (PFC); experiment: Hemolysis plaque (PFC) test of Jerne and Nordin in SRBC-immunized mice; type: in vivo, C3H/HeNCr1Br inbred male mice; conditions: 1 ng of peptide orally 2 hours after SRBC i.v., spleen lymphocytes after 4 days, IgM PFC
Protocol: Specifically, hemolysis plates (PFC) were used for the test, which was conducted by the method described by Jerne and Nordin. The test was carried out by intravenously administering to C3H/HeNCr1Br inbred male mice (Calco-Italia) of 10-12 weeks and about 25 g body weight an apyrogenic saline solution (0.2 ml) containing 1-2×10^8 red blood cells from sheep (SRBC). After two hours, groups each containing 3 mice were treated orally (intragastric tube) with 0.2 ml of saline solution (control) or with 0.2 ml of saline solution containing 1 ng of peptide. After 4 days the mice were killed and the spleen withdrawn and dissociated mechanically to separate the lymphocytes. The thus isolated lymphocytes were washed with minimum essential medium (MEM) (3×15 ml) containing Earle's salts and then resuspended in the same medium (1 ml) at a final concentration of 150,000 cells. Each cell suspension (0.1 ml) was then diluted 1:100 with MEM, 100 μl of each dilution being doubly added to microplate wells containing 25 μl of MEM, 25 μl of a 10% solution of SRBC antigens and 25 μl of guinea pig complement at a final dilution of 1:64. The entire suspension was immediately transferred by capillarity from each well to superimposed slides. […]
At the end of this period the direct hemolysis plaques indicating the number of lymphocytes which secrete antibodies (PFC) are counted by a light contrast viewer.

[3] = action of various proteases; cited from earlier work

Molecule | half-life (in vitro) [min] | Stability towards enzymatic hydrolysis in human plasma (t/2 in minutes) [1] | Plaque formation % control [2] [% control] | t1/2 in the plasma [3] [min]
CC(C)[C@H](NC(=O)[C@H](CC(=O)O)NC(=O)C(CCCCN)C(=O)N[C@@H](N)CCCNC(=N)N)C(=O)N[C@@H](Cc1ccc(O)cc1)C(=O)O (some centres unmarked) | 22 | 22 min | 112 | –
CC(C)C(C(=O)N[C@H](CC(=O)O)NC(=O)C(CCCCN)C(=O)N[C@@H](N)CCCNC(=N)N)C(=O)N[C@@H](Cc1ccc(O)cc1)C(=O)O (some centres unmarked) [Example 1] | > 300 | > 300 min | – | –
H-RKDVY-OH [TP5, H-Arg-Lys-Asp-Val-Tyr-OH] | – | ≈ 1.5 minutes | 104 | 1.5
